Measurements as given in patent US8980830B2 (priority 2007, dated 2015).
Each block holds one molecule with its values, some of them ahead of it. Square brackets hold non-standard residues; d marks the D form. Ends that are not written are not given here. Peptide text beside a SMILES is read from it. PhLac = O=C(O)[C@@H](O)Cc1ccccc1

Tests used:
[1] = Glucagon solubility assay; settings: Table 10
GLP-1 Receptor = GLP-1 Receptor (Homo sapiens, UniProt P43220); assay: Functional assay, cAMP induction (luciferase reporter, HEK293) at GLP-1 receptor; assay type: cell-based
GLP-1 Receptor, sequence (P43220 24-463): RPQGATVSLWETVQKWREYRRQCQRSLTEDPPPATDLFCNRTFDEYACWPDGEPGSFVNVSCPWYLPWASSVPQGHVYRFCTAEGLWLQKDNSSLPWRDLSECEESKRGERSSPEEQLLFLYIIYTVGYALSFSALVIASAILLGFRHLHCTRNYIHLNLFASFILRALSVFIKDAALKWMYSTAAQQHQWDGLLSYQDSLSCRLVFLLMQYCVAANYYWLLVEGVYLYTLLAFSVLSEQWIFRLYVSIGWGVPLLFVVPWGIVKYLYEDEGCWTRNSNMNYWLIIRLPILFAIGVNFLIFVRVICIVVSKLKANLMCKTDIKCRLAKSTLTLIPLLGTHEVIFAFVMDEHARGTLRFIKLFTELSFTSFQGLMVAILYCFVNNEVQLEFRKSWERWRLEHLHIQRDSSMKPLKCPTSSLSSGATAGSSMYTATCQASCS

Glucagon Receptor [2] = biological target: T1, Glucagon Receptor (Homo sapiens, UniProt P47871); assay: Glucagon receptor binding assay (scintillation proximity competition binding); settings: read-out: IC50 (nM) (Receptor binding); Table 11; ND: not detected
T1 sequence (P47871 26-477): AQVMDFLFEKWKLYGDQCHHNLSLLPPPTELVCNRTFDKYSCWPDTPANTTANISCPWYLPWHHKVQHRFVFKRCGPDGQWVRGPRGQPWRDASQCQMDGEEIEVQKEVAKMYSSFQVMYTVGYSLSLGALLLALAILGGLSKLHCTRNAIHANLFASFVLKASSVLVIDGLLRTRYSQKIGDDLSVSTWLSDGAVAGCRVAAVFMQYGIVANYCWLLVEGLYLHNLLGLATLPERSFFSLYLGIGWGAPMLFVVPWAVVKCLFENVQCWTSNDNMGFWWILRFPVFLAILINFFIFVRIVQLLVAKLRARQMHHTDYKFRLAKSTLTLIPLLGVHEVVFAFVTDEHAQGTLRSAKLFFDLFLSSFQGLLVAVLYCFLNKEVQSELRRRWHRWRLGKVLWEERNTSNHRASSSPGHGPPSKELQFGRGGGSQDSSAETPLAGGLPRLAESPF

Glucagon Receptor [3] = biological target: T1, Glucagon Receptor; assay: cAMP inhibition: antagonism of glucagon-induced cAMP at glucagon receptor; assay type: cell-based; design: expressed in transfected cells; host or cells: HEK293
[4] = pH 7
Glucagon Receptor [5] = biological target: T1, Glucagon Receptor; assay: Functional assay, cAMP induction (luciferase reporter, HEK293) at glucagon receptor; assay type: cell-based; design: expressed in transfected cells; host or cells: HEK293

Molecule: CSCC[C@H](NC(=O)[C@H](CC(C)C)NC(=O)[C@H](Cc1c[nH]c2ccccc12)NC(=O)[C@H](CCC(N)=O)NC(=O)[C@@H](NC(=O)[C@H](Cc1ccccc1)NC(=O)[C@H](CC(=O)O)NC(=O)[C@H](CCC(N)=O)NC(=O)[C@H](C)NC(=O)[C@H](CCCNC(=N)N)NC(=O)[C@H](CCCNC(=N)N)NC(=O)[C@H](CO)NC(=O)[C@H](CC(=O)O)NC(=O)[C@H](CC(C)C)NC(=O)[C@H](Cc1ccc(O)cc1)NC(=O)[C@H](CCCCN)NC(=O)[C@H](CO)NC(=O)[C@H](Cc1ccc(O)cc1)NC(=O)[C@H](CCC(=O)O)NC(=O)[C@H](CO)NC(=O)[C@@H](NC(=O)[C@@H](O)Cc1ccccc1)[C@@H](C)O)C(C)C)C(=O)N[C@@H](CC(N)=O)C(=O)N[C@H](C(=O)NCC(=O)N1CCC[C@H]1C(=O)N[C@@H](CO)C(=O)N[C@@H](CO)C(=O)NCC(=O)N[C@@H](C)C(=O)N1CCC[C@H]1C(=O)N1CCC[C@H]1C(=O)N1CCC[C@H]1C(=O)N[C@@H](CO)C(N)=O)[C@@H](C)O [[PLA^6, E^9]Glucagon (aa6-29 + CEX)-NH2] (H-[PhLac]TSEYSKYLDSRRAQDFVQWLMNTGPSSGAPPPS-NH2)
Solubility (%, pH 6-8) [1]: 16%

GLP-1 agonism EC50(nM) (GLP-1 Receptor; Table 25): No agonism | Solubility (%, pH 6-8) [1]: 11% | IC50 (Glucagon Receptor [2]): 12.3 ± 0.13 nM | IC50 (Glucagon Receptor [3]; Glucagon antagonism IC50(nM, inhibit 0.5nM G), Table 25): 23.7 ± 4.16 nM
Molecule: CSCC[C@H](NC(=O)[C@H](CC(C)C)NC(=O)[C@H](Cc1c[nH]c2ccccc12)NC(=O)[C@H](CCC(N)=O)NC(=O)[C@@H](NC(=O)[C@H](Cc1ccccc1)NC(=O)[C@H](CC(=O)O)NC(=O)[C@H](CCC(N)=O)NC(=O)[C@H](C)NC(=O)[C@H](CCCNC(=N)N)NC(=O)[C@H](CCCNC(=N)N)NC(=O)[C@H](CO)NC(=O)[C@H](CC(=O)O)NC(=O)[C@H](CC(C)C)NC(=O)[C@H](Cc1ccc(O)cc1)NC(=O)[C@H](CCCCN)NC(=O)[C@H](CO)NC(=O)[C@H](Cc1ccc(O)cc1)NC(=O)[C@H](CCC(=O)O)NC(=O)[C@H](CO)NC(=O)[C@@H](NC(=O)[C@@H](O)Cc1ccccc1)[C@@H](C)O)C(C)C)C(=O)N[C@@H](CC(N)=O)C(=O)N[C@H](C(N)=O)[C@@H](C)O [[PLA^6, E^9]Glucagon(aa6-29)-NH2] (H-[PhLac]TSEYSKYLDSRRAQDFVQWLMNT-NH2)

Molecule: Glucagon Cys^17 Mal-PEG-5K [Glucagon, Cys17PEG5K]
Percent Soluble [4]: 94%

EC50 (Glucagon Receptor [5]; read-out: cAMP Induction Glucagon Receptor EC50, Table 3, pegylated analogs): 0.1 ± 0.05 nM
Molecule: Glucagon Cys^24 maleimido, PEG-3.4K-dimer [Glucagon C24 Dimer]

GLP-1 agonism, in words (GLP-1 Receptor): very potent GLP-1 agonism | glucagon agonism, in words (Glucagon Receptor [5]): weak, but full glucagon agonism | glucagon antagonism, in words (Glucagon Receptor [3]): no meaningful glucagon antagonism | Glucagon IC50 (nM) (Glucagon Receptor [3]; Table 14): agonist | Glucagon antagonism IC50 (nM, inhibit 0.8 nM glucagon) (Glucagon Receptor [3]; Table 19): weak agonist
Molecule: HSQGTFTSDYARYLDARRAREFIKWLVRGRG-NH2 [ANK2 (Bayer peptide), reference compound]
